Values quoted from earlier work, collected in US20250345315A1, “Dispenseable formulation for active pharmaceutical ingredients” (CurifyLabs Oy, priority 2024, published 2025).
Structures can show the parent of a compound that is named as a salt.

Conditions: permeability/solubility class per ICH M9 guideline

Row | SMILES | Class
1 | CC(=O)Oc1ccccc1C(=O)O [Acetylsalicylic acid] | I
2 | CC(=O)Nc1ccc(O)cc1 [Paracetamol] | I
3 | C[C@]12C=CC(=O)C=C1CC[C@@H]1[C@@H]2[C@@H](O)C[C@@]2(C)[C@H]1CC[C@]2(O)C(=O)CO [Prednisolone] | I

The next lines start with the values.

Row | Class | SMILES
4 | I | CC(C)NCC(O)COc1ccc(COCCOC(C)C)cc1 (centres unmarked) [Bisoprolol fumarate]
5 | I | CC(C)NCC(O)COc1cccc2ccccc12 (centres unmarked) [Propranolol HCl]
